According to patent publication US10787443B2, “RAF-degrading conjugate compounds” (ZAMBONI CHEM SOLUTIONS INC., priority 2017, dated 2020):

Each molecule was assayed on GST-Braf kinase domain and biotinylated E3 substrate adapter (VHL/EloB/EloC complex or CRBN318-425) (assay: Dimerization assay (AlphaScreen/AlphaLisa), RAF/E3 dimerization). Settings: Table 17; relative value; compounds 4 fold serial dilutions from 20 μM.
Type: binding

RAF/E3 Dimerization	SMILES
+++++ (RAF/E3 Dimerization ≥75%)	Cc1ncsc1-c1ccc([C@H](C)NC(=O)[C@@H]2C[C@@H](O)CN2C(=O)[C@H](NC(=O)COCCOCCOCCOCCCCCCn2cc(-c3ccnc(NCCC#N)n3)c(-c3cnc4[nH]ccc4c3)n2)C(C)(C)C)cc1 [Compound 2.045, (2S,4R)-1-((R)-2-(tert-butyl)-21-(4-(2-((2-cyanoethyl)amino)pyrimidin-4-yl)-3-(1H-pyrrolo[2,3-b]pyridin-5-yl)-H-pyrazol-1-yl)-4-oxo-6,9,12,15-tetraoxa-3-azahenicosan-1-oyl)-4-hydroxy-N—((S)-1-(4-(4-methylthiazol-5-yl)phenyl)ethyl)pyrrolidine-2-carboxamide]
+++ (50% > RAF/E3 Dimerization ≥ 25)	Cc1ncsc1-c1ccc([C@H](C)NC(=O)[C@@H]2C[C@@H](O)CN2C(=O)[C@H](NC(=O)COCCOCCNC(=O)CCNc2nccc(-c3cn(CC(F)F)nc3-c3cnc4[nH]ccc4c3)n2)C(C)(C)C)cc1 [Compound 2.046, (2S,4R)-1-((R)-2-(tert-butyl)-15-((4-(1-(2,2-difluoroethyl)-3-(1H-pyrrolo[2,3-b]pyridin-5-yl)-1H-pyrazol-4-yl)pyrimidin-2-yl)amino)-4,13-dioxo-6,9-dioxa-3,12-diazapentadecan-1-oyl)-4-hydroxy-N—((S)-1-(4-(4-methylthiazol-5-yl)phenyl)ethyl)pyrrolidine-2-carboxamide]
++ (25% > RAF/E3 Dimerization ≥ 5%)	Cc1ncc(NC(=O)c2cccc(C(F)(F)F)c2)cc1-c1cnc(OC2CCOCC2)c(N2CCN(CCCCc3cn(CCCCCC(=O)Nc4cccc5c4C(=O)N(C4CCC(=O)NC4=O)C5=O)nn3)CC2)c1 (stereo not shown) [Compound 2.048, N-(5′-(4-(4-(1-(6-((2-(2,6-dioxopiperidin-3-yl)-1,3-dioxoisoindolin-4-yl)amino)-6-oxohexyl)-1H-1,2,3-triazol-4-yl)butyl)piperazin-1-yl)-2-methyl-6′-((tetrahydro-2H-pyran-4-yl)oxy)-[3,3′-bipyridin]-5-yl)-3-(trifluoromethyl)benzamide]
+ (5% > RAF/E3 Dimerization)	Cc1ncc(NC(=O)c2cccc(C(F)(F)F)c2)cc1-c1cnc(OC2CCOCC2)c(N2CCN(C(=O)CCCc3cn(CCCCCC(=O)Nc4cccc5c4C(=O)N(C4CCC(=O)NC4=O)C5=O)nn3)CC2)c1 (stereo not shown) [Compound 2.049, N-(5′-(4-(4-(1-(6-((2-(2,6-dioxopiperidin-3-yl)-1,3-dioxoisoindolin-4-yl)amino)-6-oxohexyl)-1H-1,2,3-triazol-4-yl)butanoyl)piperazin-1-yl)-2-methyl-6′-((tetrahydro-2H-pyran-4-yl)oxy)-[3,3′-bipyridin]-5-yl)-3-(trifluoromethyl)benzamide]
